Results taken from PubChem BioAssay (NCI).
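Cells were grown in 96-well plates and exposed to each compound for 48 hours at five concentrations; endpoints were interpolated linearly between bracketing concentrations, or set to the highest concentration if not reached. The concentration for 50% growth inhibition is given as GI50. TGI marks complete inhibition of growth.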

Legend:
Test in all cases: inhibition of tumour cell growth, NCI panel, 48 h
IGROV1 ovarian = system: IGROV1 ovarian
K-562 leukemia = system: K-562 leukemia
MCF7 breast = system: MCF7 breast
NCI-H460 lung = system: NCI-H460 lung
NCI-H522 lung = system: NCI-H522 lung
OVCAR-3 ovarian = system: OVCAR-3 ovarian
OVCAR-8 ovarian = system: OVCAR-8 ovarian
PC-3 prostate = system: PC-3 prostate
SK-MEL-28 melanoma = system: SK-MEL-28 melanoma
U251 CNS = system: U251 CNS

| SMILES | GI50 (IGROV1 ovarian) [µM] | TGI (IGROV1 ovarian) [µM] | TGI (K-562 leukemia) [µM] | GI50 (MCF7 breast) [µM] | TGI (MCF7 breast) [µM] | GI50 (NCI-H460 lung) [µM] | TGI (NCI-H460 lung) [µM] | GI50 (NCI-H522 lung) [µM] | TGI (NCI-H522 lung) [µM] | GI50 (OVCAR-3 ovarian) [µM] | TGI (OVCAR-3 ovarian) [µM] | GI50 (OVCAR-8 ovarian) [µM] | TGI (OVCAR-8 ovarian) [µM] | GI50 (PC-3 prostate) [µM] | GI50 (SK-MEL-28 melanoma) [µM] | TGI (SK-MEL-28 melanoma) [µM] | GI50 (U251 CNS) [µM] | TGI (U251 CNS) [µM] | GI50 (K-562 leukemia) [µM] | TGI (PC-3 prostate) [µM] |
| --- | --- | --- | --- | --- | --- | --- | --- | --- | --- | --- | --- | --- | --- | --- | --- | --- | --- | --- | --- | --- |
| COC(=O)c1cc(-c2cc(OC)c(OC)c(OC)c2)[nH]c1N/N=C/c1c(Cl)cccc1Cl | 2.48 | 16.8 | > 100 | 1.77 | 53 | 1.48 | 18.3 | 3.39 | 18.6 | 0.57 | 3.02 | 1.48 | 20.3 | 0.893 | 2.8 | 12.4 | 2.17 | 10.1 |  |  |
| COc1ccc(C(=O)COc2cccc(/C=C3\CSc4ccccc4C3=O)c2)cc1 | 1.49 | 3.35 |  | 0.537 | 2.22 | 3.56 | 12 | 1.73 | 3.86 | 1.88 | 3.65 | 2.65 | 6.71 | 2.03 | 2.04 | 3.71 | 1.57 | 2.99 | 0.362 | 5.03 |
| N#Cc1cccc(C(=O)Nc2cccc(NC(=O)c3cccc(C#N)c3)c2)c1 | > 100 | > 100 | > 100 | 90.9 | > 100 | 42.8 | > 100 | > 100 | > 100 |  |  | 47.3 | > 100 | 77.6 | > 100 | > 100 | 69.3 | > 100 | > 100 | > 100 |
| O=C1CC(c2ccc3c(c2)OCO3)Nc2cc3c(cc21)OCO3 (centres undefined) |  |  | > 100 | 0.364 | > 100 | 0.353 | 13 | 0.551 | 16.8 | 0.344 | 1.45 | 0.84 | > 100 | 0.464 |  |  | 0.544 | > 100 | 0.358 | > 100 |
| CC1=CCC(OC(=O)C(C)(C)CCC(O)(C(=O)OC2(C(C)C)CCC3(C)OC3C2)C(C)C)(C(C)C)CC1 (centres undefined) | 0.0814 | 0.272 |  | 0.121 | 0.448 | 0.57 | 1.39 | 0.13 | 0.439 | 0.0833 | 0.166 | 0.611 | 15.5 | 0.281 | 0.993 | 3.01 | 0.363 | 1.12 |  | 0.987 |
| Cc1ccc(NC(=O)c2cc3ccccc3c(N=Nc3ccccc3O)c2O)c(C)c1 |  | 13.5 | > 100 |  | 13.7 |  | 12.1 |  | 2.61 |  | 3.98 |  | 3.7 |  |  | 79.1 |  |  |  | 10 |
| O=c1c2cccc3cccc(c4oc5c6cccc7cccc(c(=O)c5c14)c76)c32 |  | 28.7 |  |  |  |  | 18.1 |  | 10.1 |  | 17 |  | 16.1 |  |  | 17.7 |  | 17.4 |  |  |
| CC1=C(C(=O)Nc2cccc(Cl)c2)C(c2ccc([N+](=O)[O-])cc2)C(C(=O)Nc2cccc(Cl)c2)=C(C)N1 |  | > 100 | > 100 |  |  |  | 50.4 |  | 89.9 |  | 85.3 |  | > 100 |  |  | > 100 |  | 56 |  |  |
| CCCCCCCCC(=O)N(C)C1C2CN3CCC(O2)C13 (centres undefined) |  | > 100 | > 100 |  |  |  | > 100 |  | > 100 |  | > 100 |  |  |  |  | > 100 |  | > 100 |  |  |
| NC(=O)c1cc([N+](=O)[O-])c(Cl)c([N+](=O)[O-])c1 | 3.01 | 7.9 |  | 1.97 | 4.06 | 15.7 | 38.2 | 1.94 | 3.57 | 1.97 | 3.51 | 1.87 | 3.63 | 1.91 | 2.05 | 4.34 | 2.31 | 5.61 |  | 4.26 |
| O=C1/C(=C/c2ccc3c(c2)OCO3)CCC1CN1CCOCC1 (centres undefined) |  | 40.1 | 8.42 |  |  |  | 33.4 |  | 2.78 |  | 20.5 |  | 21.4 |  |  | 10.4 |  | 14.3 |  | 4.49 |
| O=c1c2cc(Br)ccc2nc(-c2ccccc2Cl)n1NCC1(O)OCC(O)C(O)C1O (centres undefined) |  |  | > 100 |  |  |  | > 100 |  | > 100 |  | > 100 |  | > 100 |  |  | > 100 |  | > 100 |  |  |
| Fc1cccc2cc3ccc4cccc5ccc(c12)c3c45 |  | > 100 | > 100 |  |  |  |  |  | > 100 |  | > 100 |  | > 100 |  |  | > 100 |  | > 100 |  |  |
| O=c1c(Sc2c(O)c3ccccc3c3ccccc3c2=O)c(O)c2ccccc2c2ccccc12 |  | > 100 | > 100 |  |  |  | > 100 |  | 47.8 |  | > 100 |  | > 100 |  |  | > 100 |  | 84 |  |  |
| CC(=O)NCCSC(=O)c1ccccc1 |  | > 29.6 |  |  |  |  | 6.44 |  |  |  | 0.944 |  | 0.81 |  |  | 1.14 |  | 0.759 |  | 4.07 |
| COC(=O)C1C2C=CC(C2)C1(C(=O)OC)S(=O)CC12CCC(CC1O)C2(C)C (centres undefined) |  | > 100 | > 100 |  |  |  | > 100 |  | > 100 |  | > 100 |  | > 100 |  |  | > 100 |  | > 100 |  |  |
| Cn1ccc2c(c1=O)C(=O)c1nccc3c1c-2nc1ccccc13 | 1.52 | 3.87 |  | 0.871 | 2.34 | 1.36 | 3.09 |  |  |  |  |  |  | 1.69 | 1.61 | 3.05 | 1.38 | 2.79 |  | 3.64 |
| COc1ccc2c(c1)c(-c1nc(-c3c[nH]c4ncccc34)cs1)cn2CCCCN1CCOCC1 | 2.48 | 8.28 | 3.99 | 1.56 | 3.56 | 1.99 | 3.9 | 2.34 | 4.31 | 1.87 | 3.74 |  |  | 1.75 | 1.85 | 3.4 | 1.73 | 3.33 | 1.95 | 4.26 |
